The values below are quoted from earlier work in PMC5290737, “Surface mediated cooperative interactions of drugs enhance mechanical forces for antibiotic action” (Scientific Reports, 2017).

This data set concerns Staphylococcus aureus, enterococcus faecalis and enterococcus faecium. Details: method as in PMID 19369269. The conditions noted are these: cited from earlier work.

`CN[C@H](CC(C)C)C(=O)N[C@H]1C(=O)N[C@@H](CC(N)=O)C(=O)N[C@H]2C(=O)N[C@H]3C(=O)N[C@H](C(=O)N[C@H](C(=O)O)c4cc(O)cc(O)c4-c4cc3ccc4O)[C@H](O)c3ccc(c(Cl)c3)Oc3cc2cc(c3O[C@@H]2O[C@H](CO)[C@@H](O)[C@H](O)[C@H]2O[C@H]2C[C@](C)(N)[C@H](O)[C@H](C)O2)Oc2ccc(cc2Cl)[C@H]1O` [Van, vancomycin]: the “time–kill kinetics” value is 6 to 24 h.
